Data set [1] can be described thus: Stability studies of 50:50 intimate mixture under stress conditions (Form I to Form II ratio by XRPD). Format: physicochemical. The note with it: milling, micronization, or drying at about 90° C. for prolonged periods. The protocol: Experimental conditions for performing the XRPD analysis for quantification were as follows: Process the diffraction peak for Form II≈21.15° (2θ) with constant smooth factor of 0.07 to check the detection of Form II and for the quantification of Form II the area of Form II peak and reference peak of Form I were taken. The Form I and Form II areas of two preparations of the test sample were noted. Then average the Form I and Form II areas. The percentage of Form II in Form I is calculated by the following formula: % of Form II=[(S2/S1)÷K=(S2/S1)]×100 • S1=Area of peak corresponding to Form I • S2=Area of peak corresponding to Form II K=Response constant for Form II relative to Form I. The areas of the peaks associated with Form I and Form II (characteristic peaks) were measured using Bruker X-ray diffraction evaluation software. From these areas, the response constant for Form II relative to Form I was determined. The value for the K factor was 0.32. A 50:50 weight ratio intimate mixture of aprepitant Form I and Form II prepared using the process of Example 12 was subjected to different conditions to determine the stability of the mixture under stress conditions.

For data set [2] the following is noted: 2:1 v/v methanol/water mixture at 0° C.; cited from earlier work.
The conditions of data set [3]: cited from earlier work.

Molecules are shown by their SMILES. ≈ marks a conversion by molar mass, not a printed value.

Regarding `C[C@@H](O[C@H]1OCCN(Cc2n[nH]c(=O)[nH]2)[C@H]1c1ccc(F)cc1)c1cc(C(F)(F)F)cc(C(F)(F)F)c1` [5-[[(2R,3S)-2-[(1R)-1-[3,5-bis(trifluoromethyl)phenyl]ethoxy]-3-(4-fluorophenyl)-4-morpholinyl]methyl]-1,2-dihydro-3H-1,2,4-triazol-3-one], in data set [1], the “conversion to Form I upon stress conditions” value is reported as “does not convert to the more stable Form I”.

Usually solubility stands for the concentration that dissolves in the medium under given conditions. Consider `C[C@@H](O[C@H]1OCCN(Cc2n[nH]c(=O)[nH]2)[C@H]1c1ccc(F)cc1)c1cc(C(F)(F)F)cc(C(F)(F)F)c1` [Form I, 5-[[(2R,3S)-2-[(1R)-1-[3,5-bis(trifluoromethyl)phenyl]ethoxy]-3-(4-fluorophenyl)-4-morpholinyl]methyl]-1,2-dihydro-3H-1,2,4-triazol-3-one], for which the solubility in data set [2] is 900 ± 100 µg/mL (≈ 1680 µM). For the same molecule, in data set [3] (compared with Form II), the “thermodynamic stability compared with other crystalline forms” value is “superior thermodynamic stability”. Besides, the hygroscopicity result in data set [3] (compared with other crystalline forms) is listed as “non-hygroscopic”.

Turning to `C[C@@H](O[C@H]1OCCN(Cc2n[nH]c(=O)[nH]2)[C@H]1c1ccc(F)cc1)c1cc(C(F)(F)F)cc(C(F)(F)F)c1` [Form II, 5-[[(2R,3S)-2-[(1R)-1-[3,5-bis(trifluoromethyl)phenyl]ethoxy]-3-(4-fluorophenyl)-4-morpholinyl]methyl]-1,2-dihydro-3H-1,2,4-triazol-3-one], in data set [2], the “numeric ratio of solubilities (Form II vs Form I)” value was 1.4 and the solubility is 1300 ± 200 µg/mL (≈ 2430 µM).

Source of the values: patent US8217039B2, “Aprepitant polymorph mixtures” (Dr. Reddy's Laboratories Ltd., priority 2006, dated 2012).
